We go through 23 molecules from patent US10933063B2 (priority 2017, dated 2021).

SMILES strings stand for the structures.

The assay deals with BTK (Homo sapiens (Human), UniProt Q06187). Put plainly: biochemical.
Sequence of BTK (Q06187 whole entry, looked up, species assumed): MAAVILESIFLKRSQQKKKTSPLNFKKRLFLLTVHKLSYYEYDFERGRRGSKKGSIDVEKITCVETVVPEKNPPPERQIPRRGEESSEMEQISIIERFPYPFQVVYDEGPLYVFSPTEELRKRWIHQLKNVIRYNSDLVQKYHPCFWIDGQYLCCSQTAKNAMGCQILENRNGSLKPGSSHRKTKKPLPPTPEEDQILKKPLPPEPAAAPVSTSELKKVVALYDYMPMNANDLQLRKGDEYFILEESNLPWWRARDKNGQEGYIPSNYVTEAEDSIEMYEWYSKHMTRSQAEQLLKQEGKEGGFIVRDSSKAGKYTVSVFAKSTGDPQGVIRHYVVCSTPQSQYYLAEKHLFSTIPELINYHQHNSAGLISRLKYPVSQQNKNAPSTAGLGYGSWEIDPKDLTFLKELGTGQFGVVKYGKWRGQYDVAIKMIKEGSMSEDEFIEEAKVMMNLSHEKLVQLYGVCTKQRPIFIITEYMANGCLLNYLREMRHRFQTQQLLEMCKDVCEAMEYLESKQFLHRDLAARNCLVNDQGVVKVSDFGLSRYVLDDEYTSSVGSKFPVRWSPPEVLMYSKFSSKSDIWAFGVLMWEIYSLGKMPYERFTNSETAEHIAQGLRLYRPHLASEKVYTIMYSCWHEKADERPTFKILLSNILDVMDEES
In the case of `C=CC(=O)N1CCCC[C@H]1c1nc(-c2ccc(Oc3cccc(OC)c3F)cc2)c2c(C(F)(F)F)nccn12` [Example 121, (S)-1-(2-(1-(4-(2-fluoro-3-methoxyphenoxy)phenyl)-8-(trifluoromethyl)imidazo[1,5-a]pyrazin-3-yl)piperidin-1-yl)prop-2-en-1-one], the IC50 – broadly, the concentration that gives 50% inhibition – lay in the range of 1 to 10 µM.

In turn, `CC#CC(=O)N1CCC[C@H]1c1nc(-c2ccc(Oc3cccc(OC)c3F)cc2)c2c(CO)nccn12` [Example 123, (S)-1-(2-(1-(4-(2-fluoro-3-methoxyphenoxy)phenyl)-8-(hydroxymethyl)imidazo[1,5-a]pyrazin-3-yl)pyrrolidin-1-yl)but-2-yn-1-one] came in with an IC50 of 0.1 to 1 µM.

Consider `C=CC(=O)N1CCC[C@H]1c1nc(-c2ccc(OCc3cccc(F)c3F)cc2)c2cnccn12` [Example 124, (S)-1-(2-(1-(4-((2,3-Difluorobenzyl)oxy)phenyl)imidazo[1,5-a]pyrazin-3-yl)pyrrolidin-1-yl)prop-2-en-1-one], for which the IC50 was in the range of 0.01 to 0.1 µM.

Turning to `C=CC(=O)N1CCC[C@H]1c1nc(-c2ccc(COc3ccccc3F)cc2)c2cnccn12` [Example 125, (S)-(2-(1-(4-((2-fluorophenoxy)methyl)phenyl)imidazo[1,5-a]pyrazin-3-yl)pyrrolidin-1-yl)prop-2-en-1-one], the IC50 is 0.01 to 0.1 µM.

`C=CC(=O)N1CCC[C@H]1c1nc(-c2ccc(COc3ccc(F)cc3)cc2)c2cnccn12` [Example 126, (S)-1-(2-(1-(4-((4-fluorophenoxy)methyl)phenyl)imidazo[1,5-a]pyrazin-3-yl)pyrrolidin-1-yl)prop-2-en-1-one] returned an IC50 of 0.01 to 0.1 µM.

Take `CC#CC(=O)N1CCC[C@H]1c1nc(-c2ccc(OCc3cccc(F)c3F)cc2)c2cnccn12` [Example 127, (S)-1-(2-(1-(4-((2,3-difluorobenzyl)oxy)phenyl)imidazo[1,5-a]pyrazin-3-yl)pyrrolidin-1-yl)but-2-yn-1-one]: the IC50 is 1 to 10 µM.

On to `CC#CC(=O)N1CCC[C@H]1c1nc(-c2ccc(COc3ccc(F)cc3)cc2)c2cnccn12` [Example 128, (S)-1-(2-(1-(4-((4-fluorophenoxy)methyl)phenyl)imidazo[1,5-a]pyrazin-3-yl)pyrrolidin-1-yl)but-2-yn-1-one], for which the IC50 fell in the range of 1 to 10 µM.

The molecule `CC#CC(=O)N1CCC[C@H]1c1nc(-c2ccc(COc3cccc(F)c3F)cc2)c2cnccn12` [Example 130, (S)-1-(2-(1-(4-((2,3-difluorophenoxy)methyl)phenyl)imidazo[1,5-a]pyrazin-3-yl)pyrrolidin-1-yl)but-2-yn-1-one] displayed an IC50 of 1 to 10 µM.

In the case of `CC#CC(=O)N1CCC[C@H]1c1nc(-c2ccc(COc3ccc(F)c(F)c3)cc2)c2cnccn12` [Example 132, (S)-l-(2-(1-(4-((3,4-difluorophenoxy)methyl)phenyl)imidazo[1,5-a]pyrazin-3-yl)pyrrolidin-1-yl)but-2-yn-1-one], the IC50 is 1 to 10 µM.

`CC#CC(=O)N1CCC[C@H]1c1nc(-c2ccc(OCc3ccc(F)c(F)c3)cc2)c2cnccn12` [Example 134, (S)-1-(2-(1-(4-((3,4-difluorobenzyl)oxy)phenyl)imidazo[1,5-a]pyrazin-3-yl)pyrrolidin-1-yl)but-2-yn-1-one] came in with a concentration for half-maximal inhibition (IC50) of 1 to 10 µM.

Turning to `C=CC(=O)N1CCC[C@H]1c1nc(-c2ccc(OCc3cccc(F)c3)cc2)c2cnccn12` [Example 135, (S)-1-(2-(1-(4-((3-fluorobenzyl)oxy)phenyl)imidazo[1,5-a]pyrazin-3-yl)pyrrolidin-1-yl)prop-2-en-1-one], the IC50 is 0.01 to 0.1 µM.

Molecule `CC#CC(=O)N1CCC[C@H]1c1nc(-c2ccc(OCc3c(F)cccc3F)cc2)c2cnccn12` [Example 137, (S)-1-(2-(1-(4-((2,6-difluorobenzyl)oxy)phenyl)imidazo[1,5-a]pyrazin-3-yl)pyrrolidin-1-yl)bul-2-yn-1-one] displayed an IC50 of 1 to 10 µM.

The molecule `CC#CC(=O)N1CCC[C@H]1c1nc(-c2ccc(OCc3cccc(F)c3)cc2)c2cnccn12` [Example 138, (S)-1-(2-(1-(4-((3-fluorobenzyl)oxy)phenyl)imidazo[1,5-a]pyrazin-3-yl)pyrrolidin-1-yl)but-2-yn-1-one] showed an IC50 of 1 to 10 µM.

Consider `C=CC(=O)N1CCCC[C@H]1c1nc(-c2ccc(OCc3cccc(F)c3)cc2)c2c(C)nccn12` [Example 139, (S)-1-(2-(1-(4-((3-fluorobenzyl)oxy)phenyl)-8-methylimidazo[1,5-a]pyrazin-3-yl)piperidin-1-yl)prop-2-en-1-one], for which the IC50 is 0.01 to 0.1 µM.

Molecule `CC#CC(=O)N1CCCC[C@H]1c1nc(-c2ccc(OCc3cccc(F)c3)cc2)c2c(C)nccn12` [Example 140, (S)-1-(2-(1-(4-((3-fluorobenzyl)oxy)phenyl)-8-methylimidazo[1,5-a]pyrazin-3-yl)piperidin-1-yl)but-2-yn-1-one] displayed an IC50 of 0.1 to 1 µM.

`C=CC(=O)N1CCC[C@H]1c1nc(-c2ccc(OCc3cccc(Cl)c3)cc2)c2cnccn12` [Example 141, (S)-1-(2-(1-(4-((3-chlorobenzyl)oxy)phenyl)imidazo[1,5-a]pyrazin-3-yl)pyrrolidin-1-yl)prop-2-en-1-one]: the concentration for half-maximal inhibition (IC50) lay within 0.01 to 0.1 µM.

`CC#CC(=O)N1CCC[C@H]1c1nc(-c2ccc(OCc3cccc(Cl)c3)cc2)c2cnccn12` [Example 142, (S)-1-(2-(1-(4-((3-chlorobenzyl)oxy)phenyl)imidazo[1,5-a]pyrazin-3-yl)pyrrolidin-1-yl)but-2-yn-1-one] displayed a concentration for half-maximal inhibition (IC50) of 1 to 10 µM.

Turning to `C=CC(=O)N1CCC[C@H]1c1nc(-c2ccc(COc3ccccc3)cc2)c2cnccn12` [Example 143, (S)-1-(2-(1-(4-(phenoxymethyl)phenyl)imidazo[1,5-a]pyrazin-3-yl)pyrrolidin-1-yl)prop-2-en-1-one], the IC50 was 0.01 to 0.1 µM.

Molecule `CC#CC(=O)N1CCC[C@H]1c1nc(-c2ccc(COc3ccccc3)cc2)c2cnccn12` [Example 144, (S)-1-(2-(1-(4-(phenoxymethyl)phenyl)imidazo[1,5-a]pyrazin-3-yl)pyrrolidin-1-yl)but-2-yn-1-one] came in with an IC50 of 1 to 10 µM.

For `C=CC(=O)N1CCC[C@H]1c1nc(-c2ccc(COc3cccc(F)c3)cc2)c2cnccn12` [Example 145, (S)-1-(2-(1-(4-((3-fluorophenoxy)methyl)phenyl)imidazo[1,5-a]pyrazin-3-yl)pyrrolidin-1-yl)prop-2-en-1-one], the IC50 lay in the range of 0.01 to 0.1 µM.

`CC#CC(=O)N1CCC[C@H]1c1nc(-c2ccc(COc3ccccc3F)cc2)c2cnccn12` [Example 146, (S)-1-(2-(1-(4-((2-fluorophenoxy)methyl)phenyl)imidazo[1,5-a]pyrazin-3-yl)pyrrolidin-1-yl)but-2-yn-1-one] gave an IC50 of 1 to 10 µM.

In turn, `CC#CC(=O)N1CCC[C@H]1c1nc(-c2ccc(COc3cccc(F)c3)cc2)c2cnccn12` [Example 147, (S)-1-(2-(1-(4-((3-fluorophenoxy)methyl)phenyl)imidazo[1,5-a]pyrazin-3-yl)pyrrolidin-1-yl)but-2-yn-1-one] returned an IC50 of 1 to 10 µM.

Take `C=CC(=O)N1CCCC[C@H]1c1nc(-c2ccc(COc3ccc(F)c(F)c3)cc2)c2cnccn12` [Example 148, (S)-1-(2-(1-(4-((3,4-difluorophenoxy)methyl)phenyl)imidazo[1,5-a]pyrazin-3-yl)piperidin-1-yl)prop-2-en-1-one]: the IC50 lay within 0.1 to 1 µM.
